Measured values from patent US20240307351A1, “AGENT FOR ANTI-AGING OR FOR CELLULAR REJUVENATION” (TOHOKU UNIVERSITY, priority 2022, published 2024).

Tests used:
liver cells of aged mice = assay: RNA-Seq and ChIP-Atlas analysis of liver cells of aged mice; assay type: in vivo, mouse; details: oral, 50 mg/kg/day, 2 months, Table 4
Method: (§1) Water-suspended Compound #5 was orally administered to C57BL6 mice (92 weeks old) at a dose of 50 mg/kg/day per kg of mouse weight for 2 months ([MA5 addition group], n=5). After 2 months of oral administration, the mice were 101 weeks old.
(§2) In addition, water was orally administered to C57BL6 mice (92 weeks old) for 2 months ([Vehicle group], n=5). After 2 months of oral administration, the mice were 101 weeks old.
(§3) RNA sequencing (RNA-Seq) analysis was performed on the liver cells of aged mice in [MA5 addition group] and [Vehicle group] to identify genes whose expression levels changed (increased or decreased) in [MA5 addition group] as compared with the liver cells of young mice before administration. Using the results of these gene names, integrated analysis with ChIP-Atlas was performed to investigate transcription factors possibly related to these genes.

[1] = test system: C57BL6 mice (92 weeks old); assay: Treadmill running test of aged mice; assay type: in vivo, mouse; details: aged C57BL6 mice (92 weeks old), oral, 50 mg/kg/day, 2 months
Method: as §1, §2

[2] = test system: muscle cells of aged mice; assay: RNA-Seq, pathway and ChIP-Atlas analysis of muscle cells of aged mice; assay type: in vivo, mouse; details: oral, 50 mg/kg/day, 2 months
Method: as §1, §2
RNA sequencing (RNA-Seq) analysis was performed on the muscle cells of aged mice in [MA5 addition group] and [Vehicle group] to identify genes whose expression levels changed (increased or decreased) in [MA5 addition group] and [Vehicle group] compared to the muscle cells of young mice before administration.
Based on the names of genes whose expression levels increased or decreased in the aged mice of [MA5 addition group] as compared with the aged mice of [Vehicle group] in the RNA sequence (RNA-Seq) analysis, pathway analysis of genes whose expression levels varied in muscle cells of the aged mice of [MA5 addition group] was performed.
(§4) The results of the names of the genes whose expression levels increased or decreased in the aged mice of [MA5 addition group] as compared with the aged mice of [Vehicle group] in the RNA sequence (RNA-Seq) analysis were used to perform integrated analysis with ChIP-Atlas to investigate transcription factors possibly related to these genes.

[3] = test system: fibrosis-related genes (aSMA and Colla1); assay: Real-time PCR of fibrosis-related genes in renal tissue of α-Klotho gene-deficient mice; assay type: in vivo; details: oral, 10 mg/kg mouse weight/day, 28 to 60 days old
Method: Water-suspended Compound #5 was orally administered to α-Klotho gene-deficient mice (28 days old) at a dose of 10 mg/kg mouse weight/day until 60 days old (Klotho homo KO mouse administration group, n=3).
In addition, water was orally administered to wild-type mice (28 days old) and α-Klotho gene-deficient mice (28 days old) until 60 days old (n=3 for each of the wild-type non-administrated group and the Klotho homo KO mouse non-administrated group).
Renal tissue was collected from each 60-day-old mouse according to a standard method, total RNA was extracted using a commercially available column extraction kit (RNeasy Micro Kit, manufactured by QIAGEN), and cDNA was synthesized from 1 μg of total RNA using ReverTra Ace(manufactured by TOYOBO CO., Ltd.). Thereafter, to quantify mRNA derived from two types of fibrosis-related genes (aSMA and Colla1) and mRNA derived from GAPDH as an internal standard, real-time PCR was performed according to a standard method using QuantStudio 5 Real-time PCR system (manufactured by Applied Biosystems) as a measuring instrument and THUNDERBIRD SYBR qPCR MasterMix (manufactured by TOYOBO CO., Ltd.) as a reaction liquid.

[4] = test system: cochlear cells of the inner ear of Ndufs4 knockout mice; assay: RNA-Seq, pathway and ChIP-Atlas analysis of cochlear cells of Ndufs4 knockout mice; assay type: in vivo, mouse; details: oral, 50 mg/kg/day, 2 weeks
Method: Water-suspended Compound #5 was orally administered to Ndufs4 (NADH-ubiquinone oxidoreductase subunit 4) knockout mice (6 weeks old) at a dose of 50 mg/kg/day per kg of mouse weight for 2 weeks ([MA5 addition group], n=5).
In addition, water was orally administered to Ndufs4 knockout mice (6 weeks old) for 2 weeks ([Vehicle group], n=5).
RNA sequence (RNA-Seq) analysis was performed on cochlear cells of the inner ear of Ndufs4 knockout mice of [MA5 addition group] and [Vehicle group] described above, and genes whose expression levels changed (increased or decreased) in [MA5 addition group] as compared with [Vehicle group] were identified. Based on the names of the genes, pathway analysis was performed on genes whose expression has varied in the inner ear cells of the Ndufs4 knockout mice in [MA5 addition group].
as §4, with “Ndufs4 knockout” for “aged”

[5] = test system: liver cells of young mice; assay: RNA-Seq and ChIP-Atlas analysis of liver cells of young mice; assay type: in vivo, mouse; details: oral, 50 mg/kg/day, 2 months, Table 3
Method: Water-suspended Compound #5 was orally administered to C57BL6 mice (12 weeks old) at a dose of 50 mg/kg/day per kg of mouse weight for 2 months ([MA5 addition group], n=5). After 2 months of oral administration, the mice were 20 weeks old.
In addition, water was orally administered to C57BL6 mice (12 weeks old) for 2 months ([Vehicle group], n=5). After 2 months of oral administration, the mice were 20 weeks old.
as §3, with “young” for “aged”, “[Vehicle group].” for “the liver cells of young mice before administration.”

`O=C(CC(C(=O)O)c1c[nH]c2ccccc12)c1ccc(F)cc1F` (stereo not shown) [Compound #5, 4-(2,4-difluorophenyl)-2-(1H-indole-3-yl)-4-oxo-butanoic acid] was tested, and the “transcription factors related to genes whose expression increased (ChIP-Atlas)” value (liver cells of aged mice) was “FOXO1 known as longevity genes and PPARA”, the “running time on a treadmill” value [1] was “not reduced” and the “time until exhaustion (percentage of mice that continue running)” value ([1]; compared to Vehicle group) was “significantly improved”. The “MAPK cascade (pathway analysis)” value [2] was “inhibition”, the “insulin signaling pathway (pathway analysis)” value [2] was “enhancement” and the “longevity regulating pathway (pathway analysis)” value [2] was “enhancement”. For the same compound, the “transcription factors associated with genes whose expression was increased (ChIP-Atlas)” value ([2]; Table 1) was “FOXO1 known as longevity genes, KLF4, which is one of reprogramming factors necessary for the production of iPS cells, and KLF2 and KLF5”, the “expression level of Klf4 Gene” value ([2]; vs Vehicle group) was “significantly increased” and the “expression level of Myc Gene” value ([2]; vs Vehicle group) was “significantly increased”. The “expression level of Nanog Gene” value ([2]; vs Vehicle group) was “tended to increase”, the “expression level of Pou5f1 (Oct4) Gene” value ([2]; vs Vehicle group) was “tended to increase” and the “expression level of Sox2 Gene” value ([2]; vs Vehicle group) was “significantly increased”. The “renal fibrosis progressing with aging (aSMA and Colla1 mRNA)” value [3] was “inhibited”, the “IGF1 signaling pathway (pathway analysis)” value [4] was “enhanced” and the “transcription factors related to genes whose expression increased (ChIP-Atlas)” value ([4]; Table 5) was “SOX2 and MYC, which are reprogramming factors necessary for the production of iPS cells, and POU2F1 (OCT1)”. For the same compound, the “transcription factors related to genes whose expression increased (ChIP-Atlas)” value [5] was “MYC, OCT4, SOX2, and NANOG related to reprogramming factors in the production of iPS cells, RXR (retinoid X receptor) and PPARA (peroxisome proliferator-activated receptor a) related to SIRT, and TRIM28”.
